Measurements taken from patent US20250134855A1, “CO[…] AND METHODS OF USING SAME” (LYKOS THERAPEUTICS, INC., priority 2022, published 2025).

Experiment: Population PK (PPK) model of MDMA and MDA (NONMEM)
Design: species or system human
From the text: This example describes the methodology that was used to characterize the PPK of MDMA and its active minor metabolite MDA and the related model-based simulations.
For the PPK analysis, an individual was defined as evaluable if the following criteria were satisfied: • 1. Received at least one dose of MDMA • 2. Had at least one measurable MDMA observation with associated sampling time and dosing information for the MDMA modeling • 3. Had at least one measurable paired MDMA/MDA observation with associated sampling time and dosing information for the MDMA modeling
The evaluation of the impact of covariates on the MDMA and MDA PPK models focused on the most clinically relevant covariates. Prior to covariate selection, a correlation matrix was generated to determine the correlation between covariates. Only the most significant covariate among the highly correlated covariates was included in the model.
Software Nonlinear mixed-effects modeling software (NONMEM®; version 7.4; ICON, Hanover, MD, US), a software package for nonlinear mixed-effects analysis was used for the PPK modeling. R (version 4.0.2) was used for simulations (e.g., to derive exposure measures for subsequent model application analysis).
Algorithms for the Development of the Population PK Model Plasma concentration-time data was analyzed using a nonlinear mixed effects modeling approach. The first-order conditional estimation method of NONMEM with interaction (FOCE INTER) was used for PPK model development.
One-, and two-compartment models were evaluated for MDMA based on the shape of the observed concentration-time profile. MDMA absorption was evaluated in two ways: as a first-order process and as a sequential zero-order process followed by first-order absorption. MDA was developed as a sequential model, with one-, two, and three-compartment models tested.
They were modeled assuming a log-normal distribution as given by the following expression: θki=θk×e^ηk^i where θki denotes the k^th parameter value for the i^th patient, θk denotes the typical parameter value, and ηki denotes the inter-individual random effect for the i^th patient—assumed to have mean of 0 (zero) and variance ωk^2. Collectively, the vector of random effects (across the parameters indexed by k) has the covariance matrix Ω. Covariance matrix structures including diagonal and blocked diagonal structures were evaluated after the completion of covariate model building. The residual error structure was assumed to follow an additive, proportional, or combined additive and proportional error model described by the following:
The subset of covariate-parameter relationships to be included was selected based on exploratory graphical analysis, mechanistic plausibility, and scientific and clinical interest. […] This was either the covariate with the strongest influence as determined by exploratory graphical analysis or the variable that is most meaningful from a clinical, biological, or practical perspective. Continuous covariates were preferred over categorized covariates with the same meaning.
However, graphical covariate analysis can be relied on only if n-shrinkage in the respective population model parameters is low. Covariates that fulfilled the above criteria were tested in a stepwise process. The covariate selection was performed using a forward addition process followed by backward elimination. The likelihood ratio test was used to evaluate the significance of incorporating or removing fixed effects into the population model based on significance levels that were set a priori. For forward addition and backward elimination, significance levels of 0.01 and 0.001 were employed, respectively. The improvement of the model relative to the base model was compared after each of the covariates was added univariately, and the model with the largest improvement was kept for the next evaluation step, given that there was an overall statistical significance supporting the inclusion of the respective covariate. […]

[1] = 5th percentile of body weight (52 kg)
[2] = 95th percentile of body weight (97 kg)
[3] = MPXF (N =16), population parameter, IIV not included

CNC(C)Cc1ccc2c(c1)OCO2 (stereo not shown) [MDMA, 3,4-methylenedioxymethamphetamine]
higher MDMA AUC0-44 relative to reference individual [1]: 30%
higher MDMA Cmax relative to reference individual [1]: 30%
lower MDMA AUC0-44 relative to reference individual [2]: 28%
lower MDMA Cmax relative to reference individual [2]: 25%
Cmax MDMA, post hoc Geo. mean (MPKF Fasted 120 mg (N = 16)): 246.0 ng/mL
Cmax MDMA, post hoc Geo. mean (MPKF Fed 120 mg (N = 14)): 197.3 ng/mL
Post Hoc Absorption Rate, Geo. mean (Geo. CV %) (MPKF Fed (N = 14), high fat meal): 0.6 (50.2) 1/h
Post Hoc Absorption Rate, Geo. mean (Geo. CV %) (MPKT Fasted (N = 16)): 3.5 (47.0) 1/h
Duration of zero order absorption, D1, post hoc Geo. mean (MPXF (N =16)): 0.4 h
Half-life MDMA, t½, post hoc Geo. mean (MPXF (N =16)): 8.7 h
MDMA Apparent Volume of Distribution, V, post hoc Geo. mean (MPXF (N =16)): 368.3 L
Lag time, ALAG [3]: 0.3 h
time to complete clearance (5 half-lives) (assumed): 38.5 to 43.5 h
ALAG1, base model estimate (base MDMA model): 0.312 h
CL/F, base model estimate (base MDMA model): 38.3 L/h
D1, base model estimate (base MDMA model): 0.242 h
IIV on D1 (base MDMA model): 159
IIV on Ka (base MDMA model): 55.9
IIV on V2/F (base MDMA model): 28.5
V2/F, base model estimate (base MDMA model): 444 L
ka, base model estimate (base MDMA model): 1.14 h⁻¹
ALAG1, Bootstrap median (final MDMA model): 0.323 h
ALAG1, final model estimate (final MDMA model): 0.322 h
Body weight effect on V2/F, Bootstrap median (final MDMA model): 0.884
Body weight effect on V2/F, estimate (final MDMA model): 0.885
CL/F, Bootstrap median (final MDMA model): 41.8 L/h
CL/F, final model estimate (final MDMA model): 41.5 L/h
D1, Bootstrap median (final MDMA model): 0.271 h
D1, final model estimate (final MDMA model): 0.304 h
Fasted status effect on KA, Bootstrap median (final MDMA model): 1.08
Fasted status effect on KA, estimate (final MDMA model): 1.93
Fed status effect on KA, Bootstrap median (final MDMA model): −0.496
Fed status effect on KA, estimate (final MDMA model): −0.484
IIV on D1 (final MDMA model): 153
IIV on KA (final MDMA model): 60.2
IIV on V2/F (final MDMA model): 19.9
Study effect on V2/F, Bootstrap median (final MDMA model): −0.267
Study effect on V2/F, estimate (final MDMA model): −0.263
V2/F, Bootstrap median (final MDMA model): 461 L
V2/F, final model estimate (final MDMA model): 462 L
ka, Bootstrap median (final MDMA model): 1.17 h⁻¹
ka, final model estimate (final MDMA model): 1.17 h⁻¹
lower Ka (subjects fed a high fat diet): 49%

CC(N)Cc1ccc2c(c1)OCO2 (stereo not shown) [MDA, 3,4-methylenedioxyamphetamine]
MDA Clearance, CLM, post hoc Geo. mean (MPXF (N =16)): 29.7 L/h
MDA Intercompartmental Clearance, QM, post hoc Geo. mean (MPXF (N =16)): 68.4 L/h
MDA Central Volume, V3 [3]: 20.8 L
CLM, base model estimate (base MDA model): 35.6 L/h
IIV on CLM (base MDA model): 37.7
IIV on QM (base MDA model): 55.8
IIV on V4 (base MDA model): 43.5
V3, base model estimate (base MDA model): 19.4 L
lower V4 (MDA peripheral volume of distribution) (female compared to male subjects): 18%
Body weight effect on CLM, Bootstrap median (final MDA model): 0.585
Body weight effect on CLM, estimate (final MDA model): 0.580
Body weight effect on QM, Bootstrap median (final MDA model): 1.02
Body weight effect on QM, estimate (final MDA model): 1.00
CLM, Bootstrap median (final MDA model): 83.9 L/h
CLM, final model estimate (final MDA model): 79.6 L/h
Sex effect on V4, Bootstrap median (final MDA model): −0.18
V4, Bootstrap median (final MDA model): 213 L
V4, final model estimate (final MDA model): 213 L
